Converted amounts (≈) assume the structure as drawn. The source made the active and inactive calls. The calls are words filed in the database; no cut-off is given here. Non-standard residues stand in square brackets, D forms with d. Residues, ends and D or L forms follow the SMILES beside them. ξ: configuration not given here. ξY = NC(Cc1ccc(O)cc1)C(=O)O; ξR = N=C(N)NCCCC(N)C(=O)O; ξD = NC(CC(=O)O)C(=O)O; ξN = NC(=O)CC(N)C(=O)O; Nleu = CC(C)CNCC(=O)O; ξI = CCC(C)C(N)C(=O)O; ξL = CC(C)CC(N)C(=O)O; Nlys = NCCCCNCC(=O)O; ξK = NCCCCC(N)C(=O)O; ξV = CC(C)C(N)C(=O)O; ξP = O=C(O)C1CCCN1
How the values were obtained:
Klebsiella pneumoniae [1] = test: Antibacterial activity against multidrug-resistant Klebsiella pneumoniae clinical isolate OXA-48 incubated for 16 to 20 hrs in full muller hinton medium by broth microdilution method; format: functional; conditions: time 16-20 hrs
rRNA = test: Binding affinity to [gamma32 P-ATP] labeled Escherichia coli MG1655 23S ribosomal RNA (5-CCCTTGGGACCTACTTC-3') at U2506 position assessed as increase in band intensity at 1 uM incubated for 2.5 hrs in full muller hinton medium by CMCT based gel electrophoresis; format: nucleic-acid assay
Pseudomonas aeruginosa [2] = test: Antimicrobial activity against Pseudomonas aeruginosa PAO1 incubated for 16 to 20 hrs in 12.5 % muller hinton medium by broth microdilution method; format: functional; conditions: time 16-20 hrs
Pseudomonas aeruginosa [3] = test: Antibacterial activity against multidrug-resistant Pseudomonas aeruginosa clinical isolate ZEM-1A incubated for 16 to 20 hrs in 12.5 % muller hinton medium by broth microdilution method; format: functional; conditions: time 16-20 hrs
Pseudomonas aeruginosa [4] = test: Antibacterial activity against multidrug-resistant Pseudomonas aeruginosa PA14 4.13 harboring phoQ mutant incubated for 16 to 20 hrs in full muller hinton medium by broth microdilution method; format: functional; conditions: time 16-20 hrs
Klebsiella pneumoniae [5] = test: Antimicrobial activity against Klebsiella pneumoniae NCTC 418 incubated for 16 to 20 hrs in full muller hinton medium by broth microdilution method; format: functional; conditions: time 16-20 hrs
Enterobacter cloacae = test: Antibacterial activity against multidrug-resistant Enterobacter cloacae incubated for 16 to 20 hrs in full muller hinton medium by broth microdilution method; format: functional; conditions: time 16-20 hrs
Pseudomonas aeruginosa [6] = test: Antibacterial activity against multidrug-resistant Pseudomonas aeruginosa clinical isolate ZEM-1A incubated for 16 to 20 hrs in full muller hinton medium by broth microdilution method; format: functional; conditions: time 16-20 hrs
Klebsiella pneumoniae [7] = test: Antimicrobial activity against Klebsiella pneumoniae NCTC 418 incubated for 16 to 20 hrs in 12.5 % muller hinton medium by broth microdilution method; format: functional; conditions: time 16-20 hrs
Escherichia coli [8] = test: Antimicrobial activity against Escherichia coli W3110 incubated for 16 to 20 hrs in 12.5 % muller hinton medium by broth microdilution method; format: functional; conditions: time 16-20 hrs
Pseudomonas aeruginosa [9] = test: Antibacterial activity against multidrug-resistant Pseudomonas aeruginosa PA14 2P4 harboring pmrB mutant incubated for 16 to 20 hrs in full muller hinton medium by broth microdilution method; format: functional; conditions: time 16-20 hrs
Pseudomonas aeruginosa [10] = test: Antibacterial activity against multidrug-resistant Pseudomonas aeruginosa PA14 4.18 harboring pmrB mutant incubated for 16 to 20 hrs in full muller hinton medium by broth microdilution method; format: functional; conditions: time 16-20 hrs
Staphylococcus aureus [11] = test: Antimicrobial activity against methicillin-resistant Staphylococcus aureus COL incubated for 16 to 20 hrs in 12.5 % muller hinton medium by broth microdilution method; format: functional; conditions: time 16-20 hrs
Pseudomonas aeruginosa [12] = test: Antimicrobial activity against Pseudomonas aeruginosa PAO1 incubated for 16 to 20 hrs in full muller hinton medium by broth microdilution method; format: functional; conditions: time 16-20 hrs
[13] = Hemolytic activity in human RBC incubated for 4 hrs; format: toxicity, cell-based; conditions: erythrocyte
Staphylococcus aureus [14] = test: Antimicrobial activity against methicillin-resistant Staphylococcus aureus COL incubated for 16 to 20 hrs in full muller hinton medium by broth microdilution method; format: functional; conditions: time 16-20 hrs
Klebsiella pneumoniae [15] = test: Antibacterial activity against multidrug-resistant Klebsiella pneumoniae clinical isolate OXA-48 incubated for 16 to 20 hrs in 12.5 % muller hinton medium by broth microdilution method; format: functional; conditions: time 16-20 hrs
Pseudomonas aeruginosa [16] = test: Antibacterial activity against multidrug-resistant Pseudomonas aeruginosa PA14 incubated for 16 to 20 hrs in full muller hinton medium by broth microdilution method; format: functional; conditions: time 16-20 hrs
Pseudomonas aeruginosa [17] = test: Antibacterial activity against multidrug-resistant Pseudomonas aeruginosa clinical isolate ZEM9A incubated for 16 to 20 hrs in full muller hinton medium by broth microdilution method; format: functional; conditions: time 16-20 hrs
Acinetobacter baumannii [18] = test: Antimicrobial activity against Acinetobacter baumannii ATCC 19606 incubated for 16 to 20 hrs in full muller hinton medium by broth microdilution method; format: functional; conditions: time 16-20 hrs
Acinetobacter baumannii [19] = test: Antimicrobial activity against Acinetobacter baumannii ATCC 19606 incubated for 16 to 20 hrs in 12.5 % muller hinton medium by broth microdilution method; format: functional; conditions: time 16-20 hrs
Klebsiella pneumoniae [20] = test: Bacteriostatic activity against Klebsiella pneumoniae assessed as membrane perturbation at 8 times MIC in full muller hinton medium by transmission electron microscopic analysis; format: functional, organism-based
Escherichia coli [21] = test: Bacteriostatic activity against Escherichia coli at 8 times MIC in full muller hinton medium by Time-kill assay; format: functional, organism-based
Klebsiella pneumoniae [22] = test: Bacteriostatic activity against Klebsiella pneumoniae assessed as detachment of inner membrane from outer membrane by measuring a large void at 8 times MIC in full muller hinton medium by transmission electron microscopic analysis; format: functional, organism-based
Escherichia coli [23] = test: Bacteriostatic activity against Escherichia coli assessed as small intracellular vesicles at 8 times MIC in full muller hinton medium by transmission electron microscopic analysis; format: functional, organism-based
Escherichia coli [24] = test: Bacteriostatic activity against Escherichia coli assessed as detachment of inner membrane from outer membrane by measuring a large void at 8 times MIC in full muller hinton medium by transmission electron microscopic analysis; format: functional, organism-based
Escherichia coli [25] = test: Bacteriostatic activity against Escherichia coli assessed as membrane perturbation at 8 times MIC in full muller hinton medium by transmission electron microscopic analysis; format: functional, organism-based
Klebsiella pneumoniae [26] = test: Bacteriostatic activity against Klebsiella pneumoniae at 8 times MIC in full muller hinton medium by Time-kill assay; format: functional, organism-based
Klebsiella pneumoniae [27] = test: Bacteriostatic activity against Klebsiella pneumoniae assessed as small intracellular vesicles at 8 times MIC in full muller hinton medium by transmission electron microscopic analysis; format: functional, organism-based
Escherichia coli [28] = test: Antimicrobial activity against Escherichia coli W3110 incubated for 16 to 20 hrs in full muller hinton medium by broth microdilution method; format: functional; conditions: time 16-20 hrs

Compound | MIC (Pseudomonas aeruginosa [4]) | MIC (Klebsiella pneumoniae [5]) | MIC (Pseudomonas aeruginosa [6]) | MIC (Escherichia coli [8]) | MIC (Pseudomonas aeruginosa [9]) | MIC (Pseudomonas aeruginosa [10]) | MIC (Staphylococcus aureus [11]) | MIC (Pseudomonas aeruginosa [12]) | MHC [13] | MIC (Staphylococcus aureus [14]) | MIC (Pseudomonas aeruginosa [16]) | MIC (Pseudomonas aeruginosa [17]) | MIC (Escherichia coli [28]) | other results
CC[C@H](C)[C@H](NC(=O)[C@H](CCCNC(=N)N)NC(=O)C(CCCNC(=N)N)NC(=O)C1CCCN1C(=O)C1CCCN1C(=O)C(CCCNC(=N)N)NC(=O)C1CCCN1C(=O)C(CCCNC(=N)N)NC(=O)C1CCCN1C(=O)C(CC(C)C)NC(=O)C(Cc1ccc(O)cc1)NC(=O)C1CCCN1C(=O)C1CCCN1C(=O)C(CCCCN)NC(=O)C(CC(=O)O)NC(=O)C(N)C(C)C)C(=O)N[C@@H](Cc1ccc(O)cc1)C(=O)N[C@@H](CC(N)=O)C(=O)N[C@@H](CCCNC(=N)N)C(N)=O (some centres undefined) (H-[ξV][ξD][ξK][ξP][ξP][ξY][ξL][ξP][ξR][ξP][ξR][ξP][ξP][ξR]RIYNR-NH2) | > 64 mg/L | > 64 mg/L | > 64 mg/L | 4 mg/L (≈ 1.67 µM) | > 64 mg/L | > 64 mg/L | > 64 mg/L | > 64 mg/L | > 1000 µg/mL | > 64 mg/L | > 64 mg/L | > 64 mg/L |  | MIC (Klebsiella pneumoniae [1]): > 64 mg/L; Activity (rRNA): inactive; MIC (Pseudomonas aeruginosa [2]): > 16 mg/L; MIC (Pseudomonas aeruginosa [3]): > 64 mg/L; MIC (Enterobacter cloacae): > 64 mg/L; MIC (Klebsiella pneumoniae [7]): > 16 mg/L; MIC (Klebsiella pneumoniae [15]): > 64 mg/L
CC(C)C[C@H](NC(=O)CN(CC(C)C)C(=O)[C@H](CC(C)C)NC(=O)CN(CCCCN)C(=O)[C@H](CC(C)C)NC(=O)CN(CC(C)C)C(=O)[C@H](CCCCN)NC(=O)CN(CC(C)C)C(=O)[C@H](CC(C)C)NC(=O)CN(CCCCN)C(=O)[C@@H](N)CCCCN)C(N)=O (H-K[Nlys]L[Nleu]K[Nleu]L[Nlys]L[Nleu]L-NH2) | > 32 mg/L | > 32 mg/L | > 64 mg/L | 2 mg/L (≈ 1.51 µM) | > 64 mg/L | > 32 mg/L |  |  |  | > 32 mg/L | > 32 mg/L | > 64 mg/L |  | MIC (Klebsiella pneumoniae [1]): > 64 mg/L; MIC (Enterobacter cloacae): 64 mg/L (≈ 48.4 µM); MIC (Klebsiella pneumoniae [7]): > 32 mg/L; MIC (Acinetobacter baumannii [18]): > 32 mg/L; MIC (Klebsiella pneumoniae [15]): 64 mg/L (≈ 48.4 µM)
CC[C@H](C)[C@H](NC(=O)[C@H](CCCNC(=N)N)NC(=O)[C@H](CCCNC(=N)N)NC(=O)[C@@H]1CCCN1C(=O)[C@@H]1CCCN1C(=O)[C@H](CCCNC(=N)N)NC(=O)[C@@H]1CCCN1C(=O)[C@H](CCCNC(=N)N)NC(=O)[C@@H]1CCCN1C(=O)[C@H](CC(C)C)NC(=O)[C@H](Cc1ccc(O)cc1)NC(=O)[C@@H]1CCCN1C(=O)[C@@H]1CCCN1C(=O)C(CCCCN)NC(=O)C(CC(=O)O)NC(=O)C(N)C(C)C)C(=O)N[C@@H](Cc1ccc(O)cc1)C(=O)N[C@@H](CC(N)=O)C(=O)N[C@@H](CCCNC(=N)N)C(N)=O (some centres undefined) (H-[ξV][ξD][ξK]PPYLPRPRPPRRIYNR-NH2) |  |  |  | 2 mg/L (≈ 0.837 µM) |  |  |  | > 64 mg/L | > 1000 µg/mL | > 64 mg/L |  |  |  | MIC (Acinetobacter baumannii [19]): 8 mg/L (≈ 3.35 µM)
H-VDKPPYLPRPRPPRRIYNR-NH2 [ONCOCIN] | > 64 mg/L |  | > 64 mg/L |  | > 64 mg/L | > 64 mg/L |  | > 64 mg/L | > 1000 µg/mL | > 64 mg/L | > 64 mg/L | > 64 mg/L |  | Activity (Klebsiella pneumoniae [20]): Active; Few Membrane Perturbation Observed; Activity (rRNA): Active; Activity (Escherichia coli [21]): Active; Activity (Klebsiella pneumoniae [22]): Active; Activity (Escherichia coli [23]): Active; Activity (Escherichia coli [24]): Active; Activity (Escherichia coli [25]): Active; Few Membrane Perturbation Observed; Activity (Klebsiella pneumoniae [26]): Active; Activity (Klebsiella pneumoniae [27]): Active
CCC(C)C(NC(=O)C(CCCNC(=N)N)NC(=O)C(CCCNC(=N)N)NC(=O)[C@@H]1CCCN1C(=O)[C@@H]1CCCN1C(=O)[C@H](CCCNC(=N)N)NC(=O)[C@@H]1CCCN1C(=O)[C@H](CCCNC(=N)N)NC(=O)[C@@H]1CCCN1C(=O)[C@H](CC(C)C)NC(=O)[C@H](Cc1ccc(O)cc1)NC(=O)[C@@H]1CCCN1C(=O)[C@@H]1CCCN1C(=O)[C@H](CCCCN)NC(=O)[C@H](CC(=O)O)NC(=O)[C@@H](N)C(C)C)C(=O)NC(Cc1ccc(O)cc1)C(=O)NC(CC(N)=O)C(=O)NC(CCCNC(=N)N)C(N)=O (some centres undefined) (H-VDKPPYLPRPRPP[ξR][ξR][ξI][ξY][ξN][ξR]-NH2) |  | 4 mg/L (≈ 1.67 µM) |  | 1 mg/L (≈ 0.418 µM) |  |  | > 16 mg/L |  | > 1000 µg/mL | > 64 mg/L |  |  | 8 mg/L (≈ 3.35 µM) | 
CCC(C)C(NC(=O)C(CCCNC(=N)N)NC(=O)C(CCCNC(=N)N)NC(=O)C1CCCN1C(=O)[C@@H]1CCCN1C(=O)[C@H](CCCNC(=N)N)NC(=O)[C@@H]1CCCN1C(=O)[C@H](CCCNC(=N)N)NC(=O)[C@@H]1CCCN1C(=O)[C@H](CC(C)C)NC(=O)[C@H](Cc1ccc(O)cc1)NC(=O)[C@@H]1CCCN1C(=O)[C@@H]1CCCN1C(=O)[C@H](CCCCN)NC(=O)[C@H](CC(=O)O)NC(=O)[C@@H](N)C(C)C)C(=O)NC(Cc1ccc(O)cc1)C(=O)NC(CC(N)=O)C(=O)NC(CCCNC(=N)N)C(N)=O (some centres undefined) (H-VDKPPYLPRPRP[ξP][ξR][ξR][ξI][ξY][ξN][ξR]-NH2) |  | 4 mg/L (≈ 1.67 µM) |  | 1 mg/L (≈ 0.418 µM) |  |  | > 16 mg/L |  | > 1000 µg/mL | > 64 mg/L |  |  | 8 mg/L (≈ 3.35 µM) | 
CCC(C)C(NC(=O)C(CCCNC(=N)N)NC(=O)[C@H](CCCNC(=N)N)NC(=O)[C@@H]1CCCN1C(=O)[C@@H]1CCCN1C(=O)[C@H](CCCNC(=N)N)NC(=O)[C@@H]1CCCN1C(=O)[C@H](CCCNC(=N)N)NC(=O)[C@@H]1CCCN1C(=O)[C@H](CC(C)C)NC(=O)[C@H](Cc1ccc(O)cc1)NC(=O)[C@@H]1CCCN1C(=O)[C@@H]1CCCN1C(=O)C(CCCCN)NC(=O)C(CC(=O)O)NC(=O)C(N)C(C)C)C(=O)NC(Cc1ccc(O)cc1)C(=O)NC(CC(N)=O)C(=O)NC(CCCNC(=N)N)C(N)=O (some centres undefined) (H-[ξV][ξD][ξK]PPYLPRPRPPR[ξR][ξI][ξY][ξN][ξR]-NH2) |  |  |  | 1 mg/L (≈ 0.418 µM) |  |  |  | > 64 mg/L | > 1000 µg/mL | > 64 mg/L |  |  | 8 mg/L (≈ 3.35 µM) | MIC (Acinetobacter baumannii [19]): 4 mg/L (≈ 1.67 µM)

Source: ChEMBL document CHEMBL6083262, “Stereorandomized Oncocins with Preserved Ribosome Binding and Antibacterial Activity” (J Med Chem, 2024)
